Measurements from patent publication US9388163B2, “Multifunctional radical quenchers for the treatment of mitochondrial dysfunction” (Arizona Board of Regents, a Body Corporate of the State of …, priority 2011, dated 2016).

Legend:
leukemia CEM lymphocytes = test: Suppression of lipid peroxidation (C11-BODIPY 581/591, FACS) in DEM-treated cells; format: cell-based; settings: CEM cells treated with DEM, untreated control 100, treated control 0
Description: (§1) Leukemic CEM cells (ATCC®, catalogue number CRL-2264) were cultured in RPMI (GIBCO, Grand island, NY, USA) with 10% FBS (Fisher Scientific, TX, USA), 2 mM glutamine (HyClone, South Logan, Utah, USA) and 1% penicillin-streptomycin mix antibiotics (Cellgro, Manassas, Va., USA) supplements. Cells were maintained in the log phase at a concentration of between 1×10^5 and 1×10^6 cells/mL.
Measurement of C11-BODIPY^581/591 Oxidation in Cell Culture
Lipid peroxidation in cells was detected by utilizing the oxidant-sensitive lipophilic probe C11 BODIPY^581/591. […] Cells were treated with 500 nM C11 BODIPY^581/591 in phenol red-free RPMI-1640 media and incubated at 37° C. in the dark for 30 minutes. The cells were washed twice with phosphate buffered saline and oxidative stress was induced with 5 mM DEM in phenol red-free RPMI-1640 media for 90 minutes. Treated cells were collected by centrifugation at 300×g for 3 minutes and then washed twice with phosphate buffered saline. Cells were re-suspended in 250 μL of phosphate buffered saline and were analyzed by FACS (FACS Calibur flow cytometer, Becton Dickinson) to monitor the change in intensity of the C11 BODIPY^581/591 green (oxidized) fluorescence signal.

CEM leukemia cells = test: Suppression of ROS production (DCFH-DA, flow cytometry) in DEM-treated cells; format: cell-based; settings: CEM cells treated with DEM, untreated control 100, treated control 0
Description: as §1
Cellular ROS production can be monitored using 2′,7′-dichlorodihydrofluorescein diacetate (DCFH-DA) (LeBel et al. (1992) Chem. Res. Toxicol. 5, 227-231) (Molecular Probes, Eugene, Oreg., USA), a membrane permeable and oxidant-sensitive fluorescent dye. DCFH-DA is a non-fluorescent derivative of fluorescein that emits fluorescence after being oxidized by hydrogen peroxide and other ROS. The emitted fluorescence is directly proportional to the concentration of hydrogen peroxide. DCFH-DA is nonionic and nonpolar and is easily taken up by cells. Once inside the cell, DCFH-DA is hydrolyzed by cellular esterases to non-fluorescent DCFH which traps the dye in the cell. In the presence of ROS including hydrogen peroxide, DCFH is oxidized to the highly fluorescent compound dichlorofluorescein (DCF). The intracellular DCF fluorescence is used as an index of cellular ROS production.
Cellular oxidative stress was induced by pharmacological depletion of glutathione (GSH) using the chemical diethylmaleate (DEM). […] The compounds tested were prepared by first making stock solutions (1 mM) in dimethylsulfoxide (DMSO). Cells were treated with 5 mM DEM for 30 minutes and collected by centrifugation at 300×g for 3 min and then washed twice with Phosphate Buffer Saline (PBS) (Invitrogen, N.Y., USA). Cells were re-suspended in PBS buffer+10 mM glucose and incubated at 37° C. in the dark for 20 min with 10 μM DCFH-DA. Cells were collected by centrifugation at 300×g for 3 min and then washed twice with PBS buffer. The samples were analyzed immediately by flow cytometry (Becton-Dickinson FACS Caliber), (Cell Quest software, BD Biosciences) using 488 nm excitation laser and FL1-H channel 538 nm emission filter. In each analysis, 10,000 events were recorded after cell debris were electronically gated out. Results obtained were verified by running duplicates and repeating experiments N=3 independent experiments. Authentic hydrogen peroxide was used as a positive control.

[1] = tested on: bovine heart mitochondrial complex (I, III, IV); test: NADH oxidase inhibition assay (beef heart submitochondrial particles); format: biochemical
Description: X. NADH Oxidase Inhibition Assay
Beef heart mitochondria were obtained by a large-scale procedure. Inverted submitochondrial particles (SMP) were prepared by the method of Matsuno-Yagi and Hatefi (J. Biol. Chem. 260 (1985), p. 14424), and stored in a buffer containing 0.25 M sucrose and 10 mM Tris-HCl (pH 7.4) at −80° C. Inhibitory effects of compounds on bovine heart mitochondrial complex (I, III, IV) were evaluated. Maximal dimethyl sulfoxide concentration never exceeded 2% and had no influence on the control enzymatic activity. Beef heart SMP were diluted to 0.5 mg/mL. The enzymatic activities were assayed at 30° C. and monitored spectrophotometrically with a Beckman Coulter DU-530 (340 nm, ε=6.22 mM^−1 cm^−1). NADH oxidase activity was determined in a reaction medium (2.5 mL) containing 50 mM Hepes, pH 7.5, containing 5 mM MgCl2. The final mitochondrial protein concentration was 30 μg/mL. After the pre-equilibration of SMP with inhibitor for 5 min, the initial rates were calculated from the linear portion of the traces.

FRDA cell line = test: Trypan blue exclusion cell viability assay, DEM-stressed cells; format: cell-based; settings: FRDA cells stressed with DEM
Description: Friedreich's Ataxia lymphocytes and control cells (Coriell, catalogue number […], respectively) were cultured in RPMI (GIBCO, Grand island, NY, USA) with 15% FBS (Fisher Scientific, TX, USA), 2 mM glutamine (HyClone, South Logan, Utah, USA) and 1% penicillin-streptomycin mix antibiotics (Cellgro, Manassas, Va., USA) supplements. Cells were maintained in the log phase at a concentration of between 1×10^5 and 1×10^6 cells/mL.
V. Trypan Blue Cell Viability Assay
Cell viability determined by trypan blue exclusion assay: This technique was used to assess the cytoprotective effects of the invention compounds in cultured cells pharmacologically treated to induce cell death by GSH depletion. DEM was used to deplete cellular GSH and induce oxidative stress. The viability of DEM-treated cells was determined by their ability to exclude the dye trypan blue. Viable cells exclude trypan blue; whereas, non-viable cells take up the dye and stain blue. Briefly, cells were seeded at a density of 1×10^6 cells/mL and treated with different concentrations of the invention compounds. Cells were incubated at 37° C. in a humidified atmosphere of 5% CO2 in air for three hours with 5 mM DEM. Cell viability was determined by staining cells with 0.4% trypan blue using a hemocytometer. At least 500 cells were counted for each experimental group. At the time of assay, >95% of DEM-treated cells were trypan blue positive; whereas, in non-DEM treated control cell cultures >95% cells were viable. Cell viability was expressed as the percentage of control. Data are expressed as means±S.E.M (n=3).

Row | SMILES | Scavenging activity (%) (lipid peroxidation) (leukemia CEM lymphocytes; 1 μM) | Scavenging activity (%) (lipid peroxidation) (leukemia CEM lymphocytes; 2.5 μM) | Scavenging activity (%) (lipid peroxidation) (leukemia CEM lymphocytes; 5 μM) | % of scavenging activity (ROS) (CEM leukemia cells; 0.25 μM) [%] | % of scavenging activity (ROS) (CEM leukemia cells; 2.5 μM) [%] | % of scavenging activity (ROS) (CEM leukemia cells; 10 μM) [%] | NADH oxidase (complex I, III, IV) activity (%) ([1]; 5 μM compound) | NADH oxidase (complex I, III, IV) activity (%) ([1]; 10 μM compound) | NADH oxidase (complex I, III, IV) activity (%) ([1]; l μM compound) | viability at 0.1 µM (FRDA cell line) [%] | viability at 0.5 µM (FRDA cell line) [%] | viability at 2.5 µM (FRDA cell line) [%]
1 | C=Cc1c(C)n(O)c(C)c(CCCCCCC)c1=O [CPD-1, 3-heptyl-1-hydroxy-2,6-dimethyl-5-vinylpyridin-4(1H)-one] | 0 | 0 | 0 | 23.4 ± 1.6 | 22.2 ± 3.5 | 20.0 ± 4.4 | 20.7 ± 2.2 | 13.2 ± 1^ % | 29.7 ± 3.8 | 25 ± 6 | 42 ± 3 | 30 ± 6
2 | C=Cc1c(C)n(O)c(C)c(CCCCCCCCCCCCCCCC)c1=O [CPD-2, 3-hexadecyl-1-hydroxy-2,6-dimethyl-5-vinylpyridin-4(1H)-one] | 7 ± 2.8 | 13 ± 4.2 | 0 | 31.1 ± 1.3 | 25.3 ± 5.2 | 35.2 ± 3.9 | 12 ± 0.8 | 11.9 ± 1.6% | 20.1 ± 1.4 | 10 ± 3 | 14 ± 5 | 15 ± 4
3 | CCCCCCCc1c(C)n(O)c(C)c(N)c1=O [CPD-3, 3-amino-5-heptyl-1-hydroxy-2,6-dimethylpyridin-4(1H)-one] | 14 ± 4.1 | 20 ± 5.4 | 9.6 ± 2.8 | 4.6 ± 5.4 | 42.2 ± 2.9 | 67.0 ± 5.9 | 76.7 ± 6.9 | 70.4 ± 5.5% | 92.9 ± 10.9 | 19 ± 6 | 19 ± 3 | 25 ± 5
4 | CCCCCCCc1c(C)n(O)c(C)cc1=O [CPD-6, 3-heptyl-1-hydroxy-2,6-dimethylpyridin-4(1H)-one] | 0 | – | 0 | – | – | – | – | – | – | 27 ± 7 | 30 ± 13 | 24 ± 6
5 | CCCCCCCCCCc1c(C)n(O)c(C)cc1=O [CPD-7, 3-decyl-1-hydroxy-2,6-dimethylpyridin-4(1H)-one] | 0 | – | 0 | – | – | – | – | – | – | 36 ± 6 | 14 ± 5 | 20 ± 3
6 | CCCCCCCCCCCCCCCCc1c(C)n(O)c(C)cc1=O [CPD-8, 3-hexadecyl-1-hydroxy-2,6-dimethylpyridin-4(1H)-one] | 10 ± 4.3 | – | 20 ± 3.4 | – | – | – | – | – | – | 19 ± 6 | 15 ± 5 | 18 ± 2
7 | CCCCCCCc1c(C)n(O)c(C)c(Br)c1=O [CPD-9, 3-bromo-5-heptyl-1-hydroxy-2,6-dimethylpyridin-4(1H)-one] | 0 | – | 0 | – | – | – | – | – | – | 31 ± 12 | 28 ± 7 | 32 ± 5
8 | CCCCCCCCCCc1c(C)n(O)c(C)c(Br)c1=O [CPD-10, 3-bromo-5-decyl-1-hydroxy-2,6-dimethylpyridin-4(1H)-one] | 0 | – | 0 | – | – | – | – | – | – | 19 ± 6 | 20 ± 13 | 32 ± 8
9 | CCCCCCCCCCCCCCCCc1c(C)n(O)c(C)c(Br)c1=O [CPD-11, 3-bromo-5-hexadecyl-1-hydroxy-2,6-dimethylpyridin-4(1H)-one] | 7 ± 2.3 | – | 15 ± 3.3 | – | – | – | – | – | – | 12 ± 5 | 6 ± 3 | 8 ± 3
10 | CCCCCCCc1c(C)n(O)c(C)c(Cl)c1=O [CPD-12, 3-chloro-5-heptyl-1-hydroxy-2,6-dimethylpyridin-4(1H)-one] | 0 | – | 0 | – | – | – | – | – | – | 15 ± 6 | 29 ± 3 | 39 ± 3
11 | CCCCCCCCCCc1c(C)n(O)c(C)c(Cl)c1=O [CPD-13, 3-chloro-5-decyl-1-hydroxy-2,6-dimethylpyridin-4(1H)-one] | 0 | – | 0 | – | – | – | – | – | – | 17 ± 3 | 14 ± 2 | 19 ± 5
